Laboratory results published in paper PMC8126080, “Three Small Molecule Entities (MPK18, MPK334 and YAK308) with Activity against Haemonchus contortus In Vitro” (Molecules, 2021).
Entries after “also recorded” stand apart in the source; their conditions may differ. Where two headings read alike, the source gives them in different places.

Tests used:
Type in all cases: cell-based
[1] = system: exsheathed third-stage larvae (xL3) / fourth-stage larvae (L4) of Haemonchus contortus; test: Dose-response assay, inhibition of larval development (xL3 to L4) and phenotype over 7 days; conditions: seven days; for IC50: Haemonchus contortus, 168 h; for phenotype of larvae after exposure for 7 days / proportion of larvae exhibiting the phenotype at 100 µM: 100 µM; for phenotype of larvae after exposure for 7 days: xL3s/L4s
Protocol: (§1) Haemonchus contortus (Haecon-5 strain) was maintained in experimental sheep, in accordance with institutional animal ethics approval (permit no. 1714374; The University of Melbourne). Helminth-free Merino sheep (male; eight months of age) were inoculated orally with 7000 third-stage larvae (L3s) of H. contortus. Faecal samples containing H. contortus eggs were collected every day from 21 days following inoculation. These samples were incubated at 27 °C for one week to produce L3s, which were harvested and sieved through two layers of nylon mesh ([…] pore size; Rowe Scientific, Australia) to remove debris and dead larvae, and then stored at 11 °C for up to 6 months until use. To produce exsheathed third-stage larvae (xL3s) for in vitro assays, L3s were incubated in 0.15% (v/v) sodium hypochlorite for 20 min at 37 °C followed by five washes in 0.9% sterile saline by centrifugation at 600× g (5 min) at room temperature (22–24 °C).
Following the measurement of larval motility at 72 h, plates containing xL3s were incubated for four more days at 38 °C [10% (v/v) CO2 and >90% relative humidity] to test the active compounds (MPK18, MPK334 and YAK308) for their effect on the larval development over 7 days. Subsequently, worms were fixed in 1% iodine, and the rate of larval development was assessed microscopically appraising the presence (L4) or absence (xL3) of mouth and pharynx, and direct comparison with negative (untreated) controls (LB* + 0.5% DMSO). Thirty worms from each well were examined at 50-times magnification, and the number of L4s was expressed as a percentage of the total number. Assays were performed in triplicate, three times, on separate days. To establish IC50 values, compound concentrations were log10-transformed, fitted using a variable slope four-parameter equation with constraining the top value to 100% using a least squares (ordinary) fit model using GraphPad Prism (v. 9.0.2) software.

[2] = system: exsheathed third-stage larvae (xL3) of Haemonchus contortus; test: Dose-response assay, inhibition of larval motility; conditions: for xL3 Motility (72 h) Inhibition (%): concentration not given; for IC50: Haemonchus contortus, 72 h incubation, mean ± SEM, three independent experiments in triplicate
Protocol: as §1
Three compounds (designated MPK18, MPK334 and YAK308) shown to have activity against H. contortus in the primary screen were evaluated for their potency by estimating their half maximal inhibitory concentrations (IC50), calculated in a dose-response assay. In brief, compounds were titrated (18-points, 2-fold serial dilution in 50 μL of LB*, 100 µM down to 0.76 nM), in 96-well microtitre plates and xL3s were dispensed in 50 µL at a density of ~300 per well. All plates were incubated at 38 °C and 10% (v/v) CO2 with >90% humidity. After 72 h of incubation, a video recording (5 s) was taken of each well in the same camera settings as the primary screen (see Section 3.3), and larval motility measured. The motility index (Mi) was calculated from video data using the unique algorithm written in a custom macro, and analysed through the program ImageJ (v.2.0.0, Fiji). Mi data were normalised to a percentage compared with negative control (LB* + 0.5% DMSO). Monepantel and moxidectin were diluted in the same manner, and used as positive control compounds. Assays were performed in triplicate, three times, on separate days. To establish IC50 values, compound concentrations were log10-transformed, fitted using a variable slope four-parameter equation, constraining the maximum value to 100% using a least squares (ordinary) fit model employing GraphPad Prism (v. 9.0.2) software.

[3] = system: exsheathed third-stage larvae (xL3) of Haemonchus contortus; test: Primary phenotypic screen on xL3s at 20 µM (video recording, 72 h); conditions: for phenotype induced in xL3s in the primary screen: 72 h of exposure; for proportion of xL3s exhibiting the phenotype in the primary screen: 72 h, visual inspection of video recordings
Protocol: A library containing 245 compounds (Supplementary Table S1) was curated by the authors (T.K. and B.L.) at the Institute of Pharmaceutical and Medicinal Chemistry, Heinrich-Heine-University Düsseldorf, Germany. Individual compounds were dissolved in 100% high-performance liquid chromatography-grade dimethyl sulfoxide (DMSO; Merck, USA) to achieve stock concentrations of 20 mM. For screening, individual compounds were diluted further to the final concentration of 20 µM in Luria Bertani broth (LB) supplemented with 100 U/mL of penicillin, 100 μg/mL of streptomycin and 0.25 μg/mL of amphotericin B (designated LB*), and tested for activity in vitro against H. contortus.
as §1
Compounds were screened at 20 μM on H. contortus xL3s using an established assay. In brief, diluted test-compounds, negative controls (LB* + 0.5% DMSO) and two positive controls [20 μM of monepantel (Zolvix, Novartis Animal Health, Switzerland) and 20 μM of moxidectin (Cydectin, Virbac, France)] were added to wells of the 96-well microtiter plates (Corning, USA), and xL3s were dispensed at ~300/well to a final volume of 100 µL. Following a 72 h-incubation at 38 °C and 10% (v/v) CO2 at >90% humidity, a video recording (5 s) was taken of each well of the 96-well microtitre plate containing xL3s using a gray–scale camera (Rolera Bolt Scientific CMOS, Teledyne QImaging, Tucson, AZ, USA) and a motorised X–Y axis stage (BioPoint 2, Ludl Electronics Products, Hawthorne, CA, USA) attached to a stereomicroscope (SZ61, Olympus, Shinjuku, Japan). Primary screening was performed in duplicate. A compound was recorded as having activity if it altered worm morphology (phenotype) after 72 h of incubation.

[4] = Toxicity on HepG2 cells (crystal violet staining); conditions: HepG2 human hepatoma cells
Protocol: HepG2 human hepatoma cells were seeded into wells of a 96-well microtitre plate in 80 µL of Dulbecco’s modified eagle medium (DMEM), supplemented with 10% foetal bovine serum, 100 U/mL of penicillin, 100 µg/mL of streptomycin and 0.25 µg/mL of amphotericin B (DMEM*) at a density of 1 × 10^5 cells per well. Cells were allowed to adhere for 16 h at 37 °C and 5% (v/v) CO2 at >90% humidity, and incubated with individual, serially-diluted compounds (7-points, 2-fold dilution in DMEM*, from 100 µM to 1.56 µM) in a final volume of 100 µL. Doxorubicin (10 µM) and DMEM* + 0.25% DMSO (vehicle), serving as positive and negative controls, respectively, were added to the individual 96-well plates. Monepantel and moxidectin were also serially diluted—prepared in the same manner as active compounds—and used as ‘negative’ reference controls. After 48 h of incubation, cellular viability was determined by the crystal violet staining assay. The absorbance at 595 nm of treated cells was compared with that of the controls (exposed only to the vehicle, with 100% viability). Compounds and controls were tested in triplicate. To determine the half cytotoxic concentration (CC50) values, compound concentrations were log10-transformed, fitted using a variable slope four-parameter equation with a least squares (ordinary) fit model employing GraphPad Prism (v. 9.0.2) software.

[5] = mean ± SEM, read-out: L4 Development (7 days) IC50 ± SEM

Compound | IC50 [1, 5] | xL3 Motility (72 h) Inhibition (%) [2] | IC50 [2] | phenotype induced in xL3s in the primary screen [3] | CC50 at 48 h [4] | phenotype of larvae after exposure for 7 days [1] | IC50 ([1]; read-out: concentration at which active on larval development (IC50 not determined)) | proportion of xL3s exhibiting the phenotype in the primary screen [3] | proportion of larvae exhibiting the phenotype at 100 µM [1] | phenotype induced in xL3s in the primary screen ([3]; listed as YAK 308)
C[C@](C#N)(COc1cc(C#N)ccc1C(F)(F)F)NC(=O)c1ccc(SC(F)(F)F)cc1 [Monepantel, monepantel, reference compound] | 0.4 ± 0.05 µM | 90.3% | 0.6 ± 0.1 µM | Coiled | > 100 µM | – | – | – | – | –
CO/N=C1\C[C@]2(C[C@@H]3C[C@@H](C/C=C(\C)C[C@@H](C)/C=C/C=C4\CO[C@@H]5[C@H](O)C(C)=C[C@@H](C(=O)O3)[C@]45O)O2)O[C@H](/C(C)=C/C(C)C)[C@H]1C [Moxidectin, moxidectin, reference compound] | 12.4 ± 0.1 µM | 85.1% | 0.8 ± 0.2 µM | Relaxed | > 100 µM | – | – | – | – | –
Cc1ccc(/C=C/C(=O)NOCc2ccccc2)cc1 [MPK18] | – | 30.0% | 45.2 ± 4.6 µM | coiled | > 100 µM | not observed; also recorded: Wild type | > 25 µM | ~ 50% | – | –
O=C(/C=C/c1ccccc1)c1ccc(Br)cc1O [MPK334] | 12.3 ± 2.3 µM | 74.2% | 17.1 ± 4.2 µM | coiled | > 100 µM | curved | – | ~ 50% | 100% | –
COc1cc(OC)cc(C(=O)Nc2nc(-c3ccccc3)cs2)c1 [YAK308] | 6.5 ± 1.6 µM | 34.6% | 52.7 ± 6.7 µM | curved | > 100 µM | evisceration and evi | – | ~ 90% | 22% | Curved
